Experimental data: patent US20220050096A1, “ANALYTE-SENSITIVE PROBES AND CONTACT LENS FOR DIAGNOSIS OF OCULAR PATHOLOGIES” (University Of Maryland, Baltimore, priority 2020, published 2022)
Several values for one entry are separate records, joined by “and”; a condition that tells them apart may be missing. Equal entries are not always repeated.

Columns and labels:
[1] = Sodium binding affinity (mid-point) of SG in buffer; conditions: read-out: Na^+ binding constant / binding affinity (mid-point)
Method: Fluorescence Spectroscopic Measurements. Fluorescence intensities and intensity decays were measured using a Varian™ Eclipse 4 spectrofluorometer and a FluoTime300 instrument from PicoQuant™ (Berlin, Germany) and analyzed with the EasyTau™ software. The excitation source was a 473 nm laser diode with a repetition rate of 40 MHZ and a pulse width less than 100 ps. In other embodiments, the excitation source for SG-PL was at 495 nm from a Solea™ supercontinuum laser (PicoQuant™, Germany) and a 375 nm laser diode (PDL 375, PicoQuant™), a repetition rate of 40 MHz, and a pulse width less than 100 ps. Some intensity and lifetime measurements for SG-PL (as indicated) were performed using Alba V confocal fluorescence lifetime microscopy, FLIM (ISS, Urbana, Ill.), with excitation source of a 473 nm laser diode with a repetition rate of 40 MHz and a pulse width near 250 ps.
Sodium Binding Affinity. The sodium affinity of the labeled lenses can be described in terms of the dissociation constant. The dissociation reaction for the probe complexed with Na+ can be written as
P—Na^+↔P+Na^+ (equation 4)
where P is the free probe with no bound sodium in the dissociation constant KD is given. The ratio of sodium free and sodium bound probe is given by
The binding affinity is given as the mid-point (MP) of the ion-dependent response where the spectral change is 50% complete. […]

[2] = Chloride quenching (Stern-Volmer) of SPQ-C18 in contact lenses; format: physicochemical
Method: Quenching by Chloride. […] The intensities (I) and lifetimes (6) are analyzed using the Stern-Volmer equation, where F0 and τ0 are the intensities and lifetimes in the absence of chloride, and K is the quenching constant and the inverse of the [Cl^-] needed for 50% quenching. For collisional quenching, the value of F0/F and τ0/τ are typically the same. In solution, in the absence of lenses, the value of K=kq τ0 can be used to calculate the biomolecular quenching constant kq and the quenching efficiency. In the lenses, the [Cl-] may not be the same as in the bulk solution, but kq in the lenses is estimated by assuming the same concentration of chloride around the SPQ moiety in the lenses and in bulk solutions. Chloride-sensitive lenses were prepared using SPQ-C18. The quinolinium moiety in SPQ-C18 can be used for chloride sensing in tears. Its unquenched lifetime near 18.5 ns (see Table 14 and Table 15, below) which results in significant changes up to chloride concentrations of 220 mM, which is well above the physiological range. BiofinityTM and […] lenses labeled with SPQ-C18 were both found to display significant quenching at physiological concentrations of chloride near 120 mM. The emission intensities of SPQ-C18 were quenched by about 50% at this chloride concentration (FIG. 31 and FIG. 32). The emission spectra are not changed by quenching so intensity-based sensing may be different in a realworld application. […] Chloride quenching was analyzed using the Stern-Volmer equation for intensities and lifetimes (equations 7 and 8). In this analysis, we used the average lifetimes (equation 2) that is more appropriate for quenching. […] In contrast quenching of SP-PL, both intensity and lifetime, continue to decrease as the chloride concentration is increased. At the molecular level, the most interesting term is the biomolecular quenching constant kq. This value can be understood by comparison with quenching of a fluorophore in solution without any steric barriers. […] This approach for SPQ-C18 in lenses is shown in both intensities and amplitude-weighted lifetimes (FIG. 35A and FIG. 35B). […] This behavior is different from SG-PL where the binding site can be saturated at high Na^+ concentrations. In contrast, quenching of OD-MQB, both intensity and lifetime, continue to decrease as the chloride concentration increased. The steady-state intensities and intensity decays can be used to calculate the bimolecular quenching constant kq. This value can be interpreted by comparison with quenching of a fluorophore in solution without any steric barriers. […] This is the same structure of SPQ-C18 but with a shorter, three carbon propenyl chain. The unquenched lifetime (τ0) of P-MQB was 26 ns, and the Stern-Volmer constant K was 140 M^-1. […] Emission spectra and time-dependent decays were obtained (data not shown). Stern-Volmer plots were obtained in water and in a Stenfilcon A (AspireTM) contact lens by plotting the normalized intensities with respect to the added chloride concentrations.

[3] = Stenfilcon A (Aspire™) contact lens

Structure (SMILES) | Kd [1] | reduction of quenching constant, in lens versus SPQ-C3 in buffer [2] [fold] | k (bimolecular quenching constant) ([2]; Biofinity) | quenching constant K from lifetime measurement ([2]; Biofinity) [M⁻¹] | k (bimolecular quenching constant) ([2]; MyDay) | quenching constant K from lifetime measurement ([2]; MyDay) [M⁻¹] | bimolecular quenching constant [2, 3] [M⁻¹ s⁻¹] | decrease in the collision rate versus SPQ-C3 in water [2, 3] | quenching of emission intensities ([2]; chloride near 120 mM, Biofinity and MyDay) | unquenched lifetime ([2]; in lenses) [ns]
COc1cc(N2CCOCCOCCN(c3cc(OC)c(NC(=O)c4ccc(-c5c6cc(Cl)c(=O)cc-6oc6cc([O-])c(Cl)cc56)c(C(=O)[O-])c4)cc3OC)CCOCC2)c(OC)cc1NC(=O)c1ccc(-c2c3cc(Cl)c(=O)cc-3oc3cc([O-])c(Cl)cc23)c(C(=O)[O-])c1.C[N+](C)(C)C.C[N+](C)(C)C.C[N+](C)(C)C.C[N+](C)(C)C [SG] | ~10 mM and ~6.5 mM | – | – | – | – | – | – | – | – | –
CCCCCCCCCCCCCCCCCC[n+]1cccc2cc(OC)ccc21 [SPQ-C18, N-Octadecyl-6-methoxyquinolinium bromide] | – | 10 | 0.41×10^9 m-1 sec-1 | 8.12 | 0.37×10^9 m-1 sec-1 | 7.44 | 1e+09 | 5.4 | about 50% | ~18.5
